Counter-ions that a name gives are not always drawn.
Tests used:
AC1-C1b/CaM = molecular target: T1, AC1-C1b/CaM (Homo sapiens, UniProt P0DP23); assay: AC1-C1b/CaM fluorescence polarization (FP) assay; format: binding; settings: for IC50: 100 nM AC1-C1b, 100 nM GST-CaM, 95% CI in brackets; for Ki: Cheng-Prusoff from FP IC50 and Kd; for AC1-CaM FP % inhib: relative to 100 μM CDZ (100% inhibition), highest concentration tested
T1 construct: made in house; host or cells: E. coli BL21-CodonPlus (DE3)-RIPL

AC8-Nt/CaM = molecular target: T2, AC8-Nt/CaM (Homo sapiens, UniProt P0DP23); assay: AC8-Nt/CaM FP counterscreen assay; format: binding; settings: for Ki: Cheng-Prusoff from FP IC50 and Kd, n/i given where none; for Ki ratio (AC8 NT/AC1): ratio >1: more potent in AC1/CaM FP;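 for all read-outs here: fluorescence polarization of AC peptide binding GST-CaM in HEPES buffer with CaCl2, compound preincubated with CaM 30 min, peptide read after 2 h at room temperature in dark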
T2 construct: made in house; host or cells: E. coli BL21-CodonPlus (DE3)-RIPL

AC8-C2b/CaM = molecular target: T3, AC8-C2b/CaM (Homo sapiens, UniProt P0DP23); assay: AC8-C2b/CaM FP counterscreen assay; format: binding; settings: for Ki: Cheng-Prusoff from FP IC50 and Kd, n/i given where none; for Ki ratio (AC8-C2b/AC1): ratio >1: more potent in AC1/CaM FP;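 for all read-outs here: fluorescence polarization of AC peptide binding to GST-CaM in HEPES buffer with KCl and 50 µM CaCl2, compound preincubated 30 min with GST-CaM, DMSO and calmidazolium as controls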
T3 construct: made in house; host or cells: E. coli BL21-CodonPlus (DE3)-RIPL

AC1/CaM PPI = molecular target: T4, AC1/CaM PPI (Homo sapiens, UniProt P0DP23); assay: AC1/CaM NanoBiT assay in HEK293T cells; format: cell-based; settings: HEK293T, thapsigargin-stimulated, AUC; read-out: Nanobit: AC1-CaM IC50 (μM ± SEM)
T4 construct: human AC1 (hAC1) residues 1–1,118 were cloned; The hCaM residues 1–149, residues 1–1,248 of rat AC8 (rAC8); expressed in transfected cells; host or cells: HEK293T, transient transfection

AC8/CaM PPI = molecular target: T5, AC8/CaM PPI (Homo sapiens, UniProt P0DP23); assay: AC8/CaM NanoBiT assay in HEK293T cells; format: cell-based, rat; settings: HEK293T, thapsigargin-stimulated, AUC; read-out: Nanobit: AC8-CaM IC50 (μM ± SEM)
T5 construct: confirmed as an AC1/AC8 non-selective hit against full-length AC1- and AC8-CaM in the NanoBiT assay; The hCaM residues 1–149, residues 1–1,248 of rat AC8 (rAC8); expressed in transfected cells; host or cells: HEK293T, transient transfection

[1] = CellTiter-Glo 2.0 cell viability assay; format: cell-based; settings: human, HEK293T cells, pH 7.4; at the compound's AC1/CaM NanoBiT IC50 concentration; read-out: % Viable Cells at AC1 IC50;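 note: luminescence read-out after 30 min compound exposure at 37 °C in HEPES-buffered HBSS, scaled to vehicle-treated cells as 100% and cell-free buffer wells as 0%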
HEK293T cells = assay: CellTiter-Glo 2.0 cell viability assay; format: cell-based; settings: for decrease in cell viability at AC1/CaM IC50: at AC1/CaM NanoBiT IC50;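 for all read-outs here: luminescence read-out after 30 min compound exposure at 37 °C in HEPES-buffered HBSS, scaled to vehicle-treated cells as 100% and cell-free buffer wells as 0%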

Row | SMILES | IC50 (AC1-C1b/CaM) [µM] | Ki (AC1-C1b/CaM) [µM] | Ki (AC8-Nt/CaM) [µM] | Ki ratio (AC8 NT/AC1) (AC8-Nt/CaM) | Ki (AC8-C2b/CaM) [µM] | Ki ratio (AC8-C2b/AC1) (AC8-C2b/CaM) | IC50 (AC1/CaM PPI) [µM] | IC50 (AC8/CaM PPI) [µM] | viability at 30 min [1] [%] | decrease in cell viability at AC1/CaM IC50 (HEK293T cells) | AC1-CaM FP % inhib (AC1-C1b/CaM) [%] | decrease in cell viability at 100 μM (HEK293T cells; 100 μM) [%] | cell viability reduced at highest concentration tested (HEK293T cells; 316 μM) [%]
1 | Cc1cc2nc3ccc(N(C)C)cc3[s+]c2cc1N [Compound 1, Tolonium Chloride] | 1.24 | 0.29 | 2.3 | 7.9 | 0.44 | 1.5 | 32.9 ± 1.01 | 8.4 ± 1.19 | 80 | greater than 10% |  |  | 
2 | CCCCC(CC)CNC(=N)NC(=N)NCCCCCCNC(=N)NC(=N)NCC(CC)CCCC (stereo not shown) [Compound 3, Alexidine] | 2.8 | 0.67 | 1.1 | 1.6 | 2.6 | 3.9 | 17.9 ± 1.15 | 16.5 ± 1.15 | 75 | 25% | 103 | 70 | 
3 | CCCCCCCCOc1ccccc1C(=O)Nc1ccc(C(=O)OCC[N+](C)(CC)CC)cc1 [Compound 7, Otilonium] | 17.1 | 4.1 | 6.3 | 1.6 | 10.3 | 2.5 | 18.8 ± 1.16 | 12.8 ± 1.22 | 96 |  | 92 |  | ~50
4 | [H]/N=C(\N/C(=N/[H])NCCCCCCNC(=N)NC(=N)Nc1ccc(Cl)cc1)Nc1ccc(Cl)cc1 [Compound 9, Chlorhexidine HCl] | 22 | 5.2 | 13.8 | 2.7 | 20.8 | 4.0 | 111 ± 1.23 | 47.1 ± 1.35 | 80 | greater than 10% | 15 |  | 
5 | O=C1c2c(O)ccc(O)c2C(=O)c2c(NCCNCCO)ccc(NCCNCCO)c21 [Compound 11, Mitoxantrone HCl] | 27.5 | 6.5 | 41.1 | 6.3 | 8.2 | 1.3 | 44 ± 1.15 | 29.8 ± 1.18 | 87 | greater than 10% | 40 |  | 

Reference: paper PMC9486168, “Protein-protein interaction-based high throughput screening for adenylyl cyclase 1 inhibitors: Design, implementation, and discovery of a novel chemotype” (Frontiers in Pharmacology, 2022)
